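Cultured in 96-well plates, cells were exposed to test compound for 48 hours across five concentrations. TGI: concentration producing complete growth inhibition.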
Key:
Assay in all cases: growth of human tumour cells (NCI), 48 h
A549 NSCLC = tested on: A549 NSCLC
DU-145 prostate = tested on: DU-145 prostate
LOX IMVI melanoma = tested on: LOX IMVI melanoma
MCF7 breast = tested on: MCF7 breast
MDA-MB-435 = tested on: MDA-MB-435
RXF 393 renal = tested on: RXF 393 renal
SK-MEL-5 melanoma = tested on: SK-MEL-5 melanoma
SNB-75 CNS = tested on: SNB-75 CNS
SW-620 colon = tested on: SW-620 colon
U251 CNS = tested on: U251 CNS

SMILES	TGI (A549 NSCLC)	TGI (DU-145 prostate)	TGI (LOX IMVI melanoma)	TGI (MCF7 breast)	TGI (MDA-MB-435)	TGI (RXF 393 renal)	TGI (SK-MEL-5 melanoma)	TGI (SNB-75 CNS)	TGI (SW-620 colon)	TGI (U251 CNS)
Clc1nc2c(C#Cc3ccccc3)ncnc2n1C1CCCCO1 (stereo not given)	37.3 µM	63.2 µM	30.7 µM	20.9 µM	94.1 µM	26.9 µM	24.8 µM	> 100 µM	55.3 µM	26.2 µM
O=c1nc2ccc3sc4ccccc4c(=O)c3n2c(=O)[nH]1	> 100 µM	> 100 µM	> 100 µM	> 100 µM	> 100 µM	> 100 µM	> 100 µM	> 100 µM	> 100 µM	> 100 µM
CC1CN=C(c2ccc(CN3CCC(C4CCN(Cc5ccc(C6=NCC(C)N6)cc5)CC4)CC3)cc2)N1 (stereo not given)	46 µM	30.6 µM	56 µM	37.4 µM	51.6 µM	33.5 µM	> 100 µM	31.1 µM	43.1 µM	29.6 µM
C/C(=N/NC(=S)N1CCN(C(=S)N/N=C(/C)c2ccccn2)CC1)c1ccccn1	> 100 µM	> 95.5 µM	> 100 µM	> 100 µM	> 100 µM	41.4 µM	> 80.7 µM	> 77.6 µM	> 100 µM	> 100 µM
Cc1nc2cccc(F)c2c(=O)n1-c1nnc(C(F)(F)F)s1	> 10 µM	> 10 µM	> 10 µM	> 10 µM	> 10 µM	> 10 µM	> 10 µM	> 10 µM	> 10 µM	> 10 µM
COC(=O)c1cc(C)ccc1C1CN=NC12Cc1c(C)cc(C)cc1C2=O (stereo not given)	> 100 µM	> 100 µM	30.3 µM	69.1 µM	> 100 µM	72.5 µM	31.6 µM	66.8 µM	> 100 µM	> 100 µM
COc1cc2c(cc1O)CCN(C)[C@H]2Cc1ccc(Oc2c(O)c(OC)cc3c2C[C@H]2c4c(c(OC)c(OC)c(OC)c4-3)CCN2C)cc1	10 µM	11.5 µM	6.55 µM	10.7 µM	8.7 µM	6.46 µM	7.65 µM	9.61 µM	10 µM	9.05 µM
O=C1C(Cl)=C(c2ccc([N+](=O)[O-])cc2)C(=O)c2c(O)cccc21	25 µM	19.4 µM	3.6 µM	14.2 µM	4.8 µM	3.49 µM	3.46 µM	7.13 µM	3.66 µM	2.22 µM
O=P(O)(O)C=C=C1CCCCC1	> 100 µM	> 100 µM	> 100 µM	> 100 µM	> 100 µM	> 100 µM	> 100 µM	> 100 µM	> 100 µM	> 100 µM
N#Cc1c(N2CCN(c3ccc([N+](=O)[O-])cc3)CC2)[n+](=O)c2ccc(-c3ccc([N+](=O)[O-])cc3)cc2n1[O-]	> 100 µM	> 100 µM	> 100 µM	> 100 µM	> 100 µM	> 100 µM	17.5 µM	> 100 µM	> 100 µM	> 41 µM
NC1c2c(Cl)sc(Cl)c2C(=O)C1O (stereo not given)	> 100 µM	> 100 µM	47.3 µM	66 µM	> 100 µM	25.7 µM	86.6 µM	> 100 µM	50.5 µM	60 µM
O=C1/C(=C/c2ccc(O)cc2)CCC1CNc1ccccc1 (stereo not given)	34.8 µM	16.9 µM	22.2 µM	10.2 µM	36.2 µM	35.9 µM	30.6 µM	41.2 µM	7.11 µM	30.3 µM
O=C(O)CCSC1=NCCN1	> 100 µM	> 100 µM	> 100 µM	> 100 µM	> 100 µM	> 100 µM	> 100 µM	> 100 µM	> 100 µM	> 100 µM
COc1ccccc1NC(=S)N/N=C/c1ccccn1	34.7 µM	19 µM	6.8 µM	> 100 µM	> 46.4 µM	94.1 µM	2.71 µM	24.4 µM	> 46.4 µM	12.5 µM

Reference: PubChem BioAssay (NCI)
